Measurements published in US8669291B2, “Phenyl substituted cycloalkylamines as monoamine reuptake inhibitors” (Sunovion Pharmaceuticals Inc., priority 2007, dated 2014).

Key:
[1] = test system: 6-OHDA lesioned rat; experiment: 6-OHDA-lesioned rat Parkinson's disease model, paw placing test; type: in vivo
Method: The effects of compound 4 alone and in combination with L-DOPA were evaluated in the rodent 6-OHDA-lesioned rat Parkinson's disease model. The method, which detects antiparkinson activity (reversal of motor deficits and akinesia), follows that described by Henry et al. (Exp Neurol, 151(2): 334-42, 1998).
Animal Preparation: Prior to surgery, rats were administered pargyline (5 mg/kg, ip) and desipramine (25 mg/kg ip) to optimize subsequent 6-OHDA availability and increase specificity for toxicity to dopaminergic neurons. Rats were then anesthetized with isoflurane and placed in a stereotaxic frame. After exposure of Bregma, a burr hole was drilled in the skull above the right median forebrain bundle at co-ordinates: 2.8 mm posterior and 2 mm lateral to Bregma (according to the atlas of Paxinos and Watson, 1986). […]
Paw Placing Test: The paw placing test assesses correct placing of each forepaw in response to a sensory stimulus. […] The test was quantified as the percentage of successful placing responses of the limb contralateral to the side of the 6-OHDA lesion. […]
Drug Administration: For the monotherapy experiment, the effects of 5 different treatments were assessed: 1) vehicle (sterile water, PO), 2) 3 mg/kg compound 4 (PO), 3) 10 mg/kg compound 4 (PO), 4) 30 mg/kg compound 4 and 5) 6.5 mg/kg (IP) of the positive reference substance, L-DOPA. […]

[2] = test system: rats; experiment: Rat Forced Swim Test; type: in vivo; conditions: PO
Text: The method, which detects antidepressant activity, followed that described by Porsolt et al (Eur. J. Pharmacol., 47: 379-391 (1978)) and modified by Lucki et al. (Psychopharm, 121: 66-72 (1995)). Rats forced to swim in a situation from which they cannot escape rapidly become immobile. Antidepressants decrease the duration of immobility. […] Selective NE reuptake inhibitors decrease immobility by increasing climbing behaviors whereas selective 5-HT reuptake inhibitors decrease immobility by increasing swimming behaviors.
Rats were individually placed in a cylinder (Height=40 cm; Diameter=20 cm) containing 22 cm water (25° C.) for 15 minutes on the first day of the experiment (Session 1) and were then put back in the water 24 hours later for a 5 minute test (Session 2). The sessions were videotaped and duration of immobility as well as swimming and climbing behaviors during the 5 minute test were measured. Twelve rats were tested in each group. The test was performed blind. Compounds were typically evaluated at 3 doses (1-30 mg/kg), administered orally 2 times: 24 hours and 30-60 minutes before the test (Session 2), and compared with a vehicle control group. Desipramine (20 mg/kg i.p.), administered under the same experimental conditions, was used as the positive reference substance.
Data were analyzed by one way analysis of variance (ANOVA) followed by post-hoc comparisons where appropriate. An effect will be considered significant if p<0.05. Data are represented as the mean and standard error to the mean (s.e.m.).

Structure (SMILES) | paw placement performance ([1]; 10 mg/kg, PO in combination with low dose L-DOPA, FIG. 6) | performance in the paw placement task ([1]; alone, 3-30 mg/kg, PO) | Rat Forced Swim (Means ± S.E.M.) Climbing ([2]; 1 mg/kg) | Rat Forced Swim (Means ± S.E.M.) Immobility ([2]; 1 mg/kg) | Rat Forced Swim (Means ± S.E.M.) Swimming ([2]; 1 mg/kg) | Rat Forced Swim (Means ± S.E.M.) Climbing ([2]; 3 mg/kg) | Rat Forced Swim (Means ± S.E.M.) Immobility ([2]; 3 mg/kg) | Rat Forced Swim (Means ± S.E.M.) Swimming ([2]; 3 mg/kg) | Rat Forced Swim (Means ± S.E.M.) Climbing ([2]; 10 mg/kg) | Rat Forced Swim (Means ± S.E.M.) Immobility ([2]; 10 mg/kg) | Rat Forced Swim (Means ± S.E.M.) Swimming ([2]; 10 mg/kg)
CNC[C@@H]1CCCC[C@@]1(O)c1ccc(Cl)c(Cl)c1 [Compound 4] | significantly increased paw placement performance | little or no improvement in performance |  |  |  |  |  |  |  |  | 
CN(C)C[C@@H]1CCCC[C@@]1(O)c1ccc(Cl)c(Cl)c1 (single isomer, unassigned) [Compound 2, cis-1-(3,4-dichlorophenyl)-2-((dimethylamino)methyl)cyclohexanol] |  |  | ## (11-20 (##)) | +++ (>41 (+++)) | * (1-5 (*)) | # (1-10 (#)) | +++ (>41 (+++)) | * (1-5 (*)) | ### (>21 (###)) | + (1-20 (+)) | ** (6-9 (**))
